The IC50 is the midpoint of a concentration-inhibition curve. Read a high IC50 as weaker potency. By EC50 is commonly meant the concentration that produces a half-maximal response. A high value points to lower potency in that assay.

We go through one compound from patent publication US20210244712A1, “METHODS FOR TREATING PATIENTS WITH CANCER HAVING DEFECTS IN CYCLIN D REGULATION” (NysnoBio Ireland DAC, priority 2018, published 2021).

Entries after “also recorded” stand apart in the source; their conditions may differ.

What all share (type): cell-based
In experiment [1] the test system is OAW28. Briefly: Cell proliferation assay. The note with it: Homo sapiens, OAW-28.
The test system of the next experiment is OVCAR-3. Briefly: Cell proliferation assay. Conditions: Homo sapiens; Ovarian OVCAR-3; loss of p16 (mutant p53).
For another experiment, the system named is cyclin D1. The experiment is described as follows: Western blot of cellular biomarker cyclin D1. The procedure: (§1) Various cancer cells lines were treated with Compound 42 or palbociclib (control) to measure the expression of cyclin D, cyclin E, pRb, and Rb.
(§2) Day 1: 6 well plate was seeded with 3×10^5 cells/well with a final volume of 3 mL and incubated for 24 hours at 37° C.
(§3) Day 2: The media was removed and Compound 42 (see below for dose) or palbociclib (1 μM) as positive control were added to the wells the desired concentration in cell culture media, giving a final volume of 3 mL per well. The plate was incubated for 24 hours at 37° C. (or desired period).
(§4) Day 3: The media was removed from wells and washed ×3 with PBS. 500 μl of trypsin was added to the wells and incubate until cells detach. 500 μl media was added to neutralise trypsin, transferred to 2 ml Eppendorfs, and centrifuged (1500 RPM for 5 minutes). While spinning, the wells were washed with 1 mL PBS to collect any remaining cells. This wash was used to centrifuged cell pellet. After the first spin, the supernatant was discarded and the pellet was washed with PBS collected from the previous step. The centrifugation step was repeated and the supernatant was discarded and the pellet wash again with fresh PBS. The centrifugation and wash with PBS was repeated one more time. RIPA cell lysate buffer was prepared and Protease Inhibitor Cocktail was included. The supernatant was discarded and […] RIPA cell lysate buffer was added to the pellet. The protein concentration was determined using the BCA assay kit.
(§5) Day 4: Western blot analysis was performed. 4-12% Bis-Tris gel and MOPS running buffer was used. The running buffer was made to sufficient volume of running buffer to 1× concentration. 20 μg protein (v/v loading & reducing buffer) of each sample was loaded into wells. Some proteins may require more, or less, protein loaded. The gel was ran at standard settings 200 V for 45 minutes. Once gel has run, the gel was transferred for 7 minutes using the iBlot Blotting System. The membrane was blocked using 5% non-fat powdered milk* made up in 1×TBS containing 0.1% Tween (TBS-T and incubated for 1 hr with gentle rocking. The observation from the Western blot analysis is quantified in FIGS. 2-7D.
Cell lines A2780 (ovarian cell line with no cyclin D pathway mutations), ES-2 (ovarian cell line with cyclin D amplification, p53 mutation), OAW42, and SW626 were treated with DMSO (control), 250 nM of Compound 42, or 1 μM of Palbociclib. Treated cells were incubated for 24 hours and data represented in FIGS. 2-5 represents n=3.
On the technique in general: A western blot detects proteins with antibodies after separation by electrophoresis.

Experiment [2] relates to OAW28. Briefly: Senescence quantification (SA-βGal). Conditions: OAW28, loss of Rb expression. As for the experimental part: Day 1: 96 well plate was seeded with 4000 cells/well and incubated for 24 hours at 37° C.
Day 2: Compound 42 (50, 100, or 150 nM) or palbociclib (1 μM) as positive control were added to the wells and the plate was incubated for 96 hours at 37° C.
Day 6: Senescence cells histochemical Staining Kit (Sigma) was used. The growth medium form the cells were aspirated then washed twice with fresh […]. […] 100 μL filtered Fixation Buffer was added per well and the plate was incubated for 6-7 minutes at room temperature. Then, the cells were rinsed 3 times with PBS. 50 μL of the Staining Mixture was added per well and incubated at 37° C. overnight without CO2 (staining is pH dependent). After staining, the Staining Mixture was removed, PBS and Hoechst dye (1 μg/mL) were added. Ten images were taken with Epifluorescence Microscope using the blue filter and 10 images were taken in the brightfield. The images were used to count the total cell number—the positive blue cells were counted in the bright field. The percentage of cells expressing β-galactosidase was calculated.
Method 1: Mammalian β-Galactosidase Assay Kit (Thermo Scientific) was used. […] The cells were washed once with PBS. […] The absorbance was measured at 405 nm. […]
Method 2: Assay of a portion of the lysate. […] 25 μL of lysate was removed and use it for Protein Quantification (BCA). […]

The test system of another experiment is pRb. Briefly: Western blot of cellular biomarker pRb. The procedure:
as §1, §2, §3, §4
as §5, with “Once gel has run, the gel was transferred for 7 minutes using the iBlot Blotting System.” left out, “2-7D. […]” for “2-7D.”

Another experiment concerns ES-2. The experiment is described as follows: Cell proliferation assay. Conditions: Homo sapiens.
The subject of a further experiment is cyclin E. Briefly: Western blot of cellular biomarker cyclin E. Conditions: JEKO-1; 500 nM Compound 42; 48 hours; compared to palbociclib 1 μM. The procedure:
as §1, §2, §3
Day 3: The media was removed from wells and washed ×3 with PBS. 500 μl of trypsin was added to the wells and incubate until cells detach. 500 μl media was added to neutralise trypsin, transferred to 2 ml Eppendorfs, and centrifuged (1500 RPM for 5 minutes). While spinning, the wells were washed with 1 mL PBS to collect any remaining cells. This wash was used to centrifuged cell pellet. After the first spin, the supernatant was discarded and the pellet was washed with PBS collected from the previous step. […] The protein concentration was determined using the BCA assay kit.
Day 4: Western blot analysis was performed. […] The membrane was blocked using 5% non-fat powdered milk* made up in 1×TBS containing 0.1% Tween (TBS-T and incubated for 1 hr with gentle rocking. The observation from the Western blot analysis is quantified in FIGS. 2-7D. […]

A further experiment deals with Cyclin D. The experiment is described as follows: Mechanistic study: Cyclin D western blot with or without epoxomicin. Conditions: ES-2, 18 hours. The procedure:
In order to establish that the decrease in Cyclin D seen after Compound 42 treatment is due to proteasomal degradation, ES-2, ovarian cancer cell line was treated with Compound 42 (250 nM) in the presence or absence of epoxomicin, a specific inhibitor of the proteasome (60 nM) for 18 hours. Following the treatment, western blotting for Cyclin D (FIG. 10A), Ub (FK-2) (FIG. 10B), and GAPDH control (bottom blot, below FIGS. 10A and 10B) was performed. Epoxomicin is a specific inhibitor of the proteasome.

The mark [3] stands for this setting: HT116, with increasing concentration.

Turning to `Cc1ccccc1C(=O)Nc1nc(NC(=O)c2ccccc2C)n(-c2ccc(OC(F)(F)F)cc2)n1` [Compound 42, N,N′-(1-(4-(trifluoromethoxy)phenyl)-1H-1,2,4-triazole-3,5-diyl)bis(2-methylbenzamide)], the IC50 in the experiment on OAW28 [1] (Ovarian OAW28, overexpression of Cyclin D, loss of p16 (mutant p53), loss of RB) was found to be 140 nM; in the experiment on OVCAR-3 it was 140 nM; in the experiment with ES-2 (Ovarian ES-2, overexpression of Cyclin D, loss of p16 (mutant p53)) it was 57 nM. Moreover, the EC50 stood at 114 nM with OAW28 [1] (Table 7a, Ovarian (OAW28)) and 42 nM in the experiment on ES-2 (Table 7a, Ovarian (ES-2)). Also, the “Cyclin D1 expression” value is listed as “reduction of cyclin D1 expressions” with cyclin D1 (A2780, 250 nM Compound 42, 1 μM Palbociclib, 24 hours); “reduction of cyclin D1 expressions” in the experiment with cyclin D1 (ES-2, 250 nM Compound 42, 1 μM Palbociclib, 24 hours); “reduction” with cyclin D1 (setting [3]); “reduction of cyclin D1 expressions” in the experiment on cyclin D1 (OAW42, 250 nM Compound 42, 1 μM Palbociclib, 24 hours); “reduction of cyclin D1 expressions” in the experiment on cyclin D1 (SW626, 250 nM Compound 42, 1 μM Palbociclib, 24 hours). For the same compound, the cell senescence entry with OAW28 [2] is given as “not observed; also recorded: no senescence; also recorded: += weak senescence due to loss of RB”. Moreover, the pRb expression entry in the experiment with pRb (A2780, 250 nM Compound 42, 24 hours, compared to palbociclib 1 μM) is recorded as “some reduction of pRb expression”; in the experiment with pRb (setting [3]), “reduction”; in the experiment with pRb (OAW42, 250 nM Compound 42, 24 hours, compared to palbociclib 1 μM), “reduction of pRb expression”. In addition, the “cyclin E expression” value with cyclin E was “reduction of cyclin E and cyclin D expression”. The “cyclin D levels” value in the experiment on Cyclin D (Compound 42 250 nM alone) is on record as “induced cyclin D levels to decrease”; with Cyclin D (Compound 42 250 nM alone, listed as compound 42), “decreases cyclin D levels”; in the experiment with Cyclin D (Compound 42 250 nM in the presence of epoxomicin 60 nM), “returned cyclin D levels to normal (or slightly above)”; with Cyclin D (Compound 42 250 nM in the presence of epoxomicin 60 nM, listed as compound 42), “counterbalanced by adding epoxomicin”.
